pIC50: −log10 of the molar value. Where a name gives a salt, the structure may show the parent alone.
Key:
THP-1 cells = assay: Human monocytic THP-1 cell differentiation assay for soluble proteins (THP-1 soluble protein assay); assay type: cell-based; conditions: LPS-stimulated THP-1 cells, soluble protein not given
Description: Mitogenic stimulation of THP-1 cells cause differentiation into macrophage like cells with concomitant secretion of tumor necrosis factor (TNF-α) and TNF receptor (TNF-R p75/80 and TNF-R p55160) and Interleukin-8 (IL-8), among other proteins. In addition, non-stimulated THP-1 cells shed both the p75/80 and the p55/60 receptors over time. The release of membrane bound TNF-α and possibly TNF-R p75/80 and TNF-R p55/60, but not IL-8, is mediated by an enzyme called TNF-α converting enzyme or TACE.
THP-1 cells (from ATCC) are a human monocytic cell line which were obtained from the peripheral blood of a person with acute monocytic leukemia. They can be grown in culture and differentiated into macrophage like cells by stimulation with mitogens.
Each vial of cells are cultured for about two weeks prior to being used for an assay and then are used for only 4 to 6 weeks to screen compounds.
Cell exposure to DMSO was limited to 0.1% final concentration. […] Compounds can be evaluated for their effect on basal (non-stimulated) shedding of the receptors by replacing the LPS with […] of THP-1 media.
Plates are placed into an incubator set at 5% CO2 and at 37° C. After 4 hours of incubation, […] of tissue culture supernatant (TCS) is removed for use in an TNF-α ELISA. Following 24 hours of incubation, […] of TCS is removed and used for analysis in TNF-R p75/80, TNF-R p55160 and IL-8 ELISAs.
In addition, at the 24 hours timepoint, and the cells for each treatment group are collected by resuspension in 500 μl/well of THP-1 media and transferred into a FACS tube. […] The samples are run on a Becton Dickinson FaxCaliber FLOW cytometry machine and the amount of dye taken up by each cell is measured in the high red wavelength (FL3). Only cells with compromised membranes (dead or dying) can take up PI. The percent of live cells is calculated by the number of cells not stained with PI, divided by the total number of cells in the sample. The viability values calculated for the drug treated groups were compared to the viability value calculated for the vehicle treated mitogen stimulated group (“vehicle positive control”) to determine the “percent change from control”. This “percent change from control” value is an indicator of drug toxicity.
The quantity of soluble TNF-α, TNF-R p75/80 and TNF-R p55160 and IL-8 in the TCS of the THP-1 cell cultures are obtained with commercially available ELISAs from R&D Systems, by extrapolation from a standard curve generated with kit standards. The number of cells that either take up or exclude PI are measured by the FLOW cytometry machine and visualized by histograms using commercially available Cytologic software for each treatment group including all controls.
Biological variability in the magnitude of the response of THP-1 cell cultures requires that experiments be compared on the basis of percent change from “vehicle positive control” for each drug concentration. Percent change in each soluble protein evaluated from the “vehicle positive control” was calculated for each compound concentration with the following formula: [formula]
For the soluble protein (TNF-α, p75/80, p55/60, IL-8) studies under stimulated conditions, the mean pg/ml of duplicate wells were determined and the results expressed as percent change from “vehicle positive control”. For the soluble protein (p75/80 and p55/60 receptors) studies under non-stimulated conditions, the mean pg/ml of duplicate wells were determined and the results expressed as percent change from “vehicle positive control” utilizing the following formula: [formula]
IC50 values for each compound are calculated by non-linear regression analysis using customized software utilizing the JUMP statistical package.
For the cell viability studies, the viabilities (PI exclusion) of pooled duplicate wells were determined and the results expressed as % change from “vehicle positive control”.

MMP-13 = MMP-13 (Homo sapiens, UniProt P45452); assay: MMP-13 inhibition (thiopeptide or fluorescent peptide substrate); assay type: biochemical; conditions: read-out: MMP13 IC50
Experimental: The enzyme activity is measured by the rate of the color increase. The thiopeptide substrate is made up fresh as a 20 mM stock in 100% DMSO and the DTNB is dissolved in 100% DMSO as a 100 mM stock and stored in the dark at room temperature. Both the substrate and DTNB are diluted together to 1 mM with substrate buffer (50 mM HEPES pH 7.5, 5 mM CaCl2) before use. The stock of enzyme is diluted with buffer (50 mM HEPES, pH 7.5, 5 mM CaCl2, 0.02% Brij) to the desired final concentration.
Alternatively, a fluorescent peptide substrate is used. In this test procedure, the peptide substrate contains a fluorescent group and a quenching group. Upon cleavage of the substrate by an MMP, the fluorescence that is generated is quantitated on the fluorescence plate reader. The assay is run in HCBC assay buffer (50 mM HEPES, pH 7.0, 5 mM Ca^+2, 0.02% Brij, 0.5% Cysteine), with human recombinant MMP-1, MMP-9, or MMP-13. The substrate is dissolved in methanol and stored frozen in 1 mM aliquots. For the assay, substrate and enzymes are diluted in HCBC buffer to the desired concentrations. Compounds are added to the 96 well plate containing enzyme and the reaction is started by the addition of substrate.
For either the thiopeptide or fluorescent peptide test procedures, the slope of the line is calculated and represents the reaction rate. […] The mean (x±sem) of the control rate is calculated and compared for statistical significance (p<0.05) with drug-treated rates using Dunnett's multiple comparison test.

[1] = target: TNF-α converting enzyme (TACE) (Homo sapiens, UniProt P78536); assay: Test procedure for measuring TACE inhibition (fluorescent peptidyl substrate); assay type: biochemical
TNF-α converting enzyme (TACE), sequence (P78536 215-824): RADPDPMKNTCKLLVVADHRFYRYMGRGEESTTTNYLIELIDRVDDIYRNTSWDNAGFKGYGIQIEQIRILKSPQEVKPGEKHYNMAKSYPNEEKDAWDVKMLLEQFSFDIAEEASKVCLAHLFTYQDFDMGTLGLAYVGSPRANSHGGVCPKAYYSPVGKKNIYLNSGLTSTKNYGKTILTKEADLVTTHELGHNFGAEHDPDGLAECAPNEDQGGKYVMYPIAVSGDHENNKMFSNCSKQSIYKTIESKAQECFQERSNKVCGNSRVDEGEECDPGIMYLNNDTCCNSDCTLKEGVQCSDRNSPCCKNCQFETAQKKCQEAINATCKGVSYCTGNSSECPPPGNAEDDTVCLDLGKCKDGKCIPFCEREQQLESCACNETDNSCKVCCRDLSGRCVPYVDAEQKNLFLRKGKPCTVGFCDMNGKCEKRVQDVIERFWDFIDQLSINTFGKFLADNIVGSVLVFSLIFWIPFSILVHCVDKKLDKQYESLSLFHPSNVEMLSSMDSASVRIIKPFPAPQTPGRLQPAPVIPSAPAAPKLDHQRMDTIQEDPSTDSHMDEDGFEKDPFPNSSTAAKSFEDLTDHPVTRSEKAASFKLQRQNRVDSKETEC
Experimental: Using 96-well black microtiter plates, each well receives a solution composed of 10 μL TACE (final concentration 1 μg/mL), 70 μL Tris buffer, pH 7.4 containing 10% glycerol (final concentration 10 mM), and 10 μL of test compound solution in DMSO (final concentration 1 μM, DMSO concentration <1%) and incubated for 10 minutes at room temperature. The reaction is initiated by addition of a fluorescent peptidyl substrate (final concentration 100 μM to each well and then shaking on a shaker for 5 sec.
The reaction is read (excitation 340 nm, emission 420 nm) for 10 min. and the increase in fluorescence over time is plotted as a linear line. The slope of the line is calculated and represents the reaction rate.
The mean (x±sem) of the control rate is calculated and compared for statistical significance (p<0.05) with drug-treated rates using Dunnett's multiple comparison test.

| SMILES | pIC50 (MMP-13) | pIC50 [1] | inhibition at 3 µM (THP-1 cells) |
| --- | --- | --- | --- |
| CC#CCOc1ccc(S(=O)(=O)C2(C(=O)NO)CCN(Cc3ccc(OCCN4CCCCC4)cc3)CC2)cc1 [Example 26, 4-{[4-(2-Butynyloxy)phenyl]sulfonyl}-1-[4-(2-piperidin-1-yl-ethoxy)-benzyl]-piperidine-4-carboxylic acid hydroxyamide] | 7.66 | 6.87 | 63% |
| CC#CCOc1ccc(S(=O)(=O)C2(C(=O)NO)CCN(Cc3ccc(F)cc3)CC2)cc1 [Example 7, 4-(4-But-2-ynyloxy-benzenesulfonyl)-1-(4-fluoro-benzyl)-piperidine-4-carboxylic acid hydroxyamide] | 7.23 | 6.91 | 21% |
| CC#CCOc1ccc(S(=O)(=O)C2(C(=O)NO)CCN(Cc3ccc(OC)cc3)CC2)cc1 [Example 2, 4-(4-But-2-ynyloxy-benzenesulfonyl)-1-(4-methoxy-benzyl)-piperdine-4-carboxylic acid hydroxyamide] | 7.40 | 7.09 | 68% |
| CC#CCOc1ccc([S+]([O-])CC2(C(=O)NO)CCNCC2)cc1 (stereo not drawn) [Example 33, 4-[[[4-(2-Butynyloxy)phenyl]sulfinyl]methyl]-N-hydroxy-4-piperidinecarboxamide] | ~5.00 | 6.49 | 8% |
| C#CCOc1ccc(S(=O)(=O)C2(C(=O)NO)CCN(Cc3ccc(Cl)cc3)CC2)cc1 [Example 29, 1-(4-Chlorobenzyl)-4-(4-prop-2-ynyloxy-benzenesulfonyl)-piperidine-4-carboxylic acid hydroxyamide] | 8.33 | 6.90 | 13% |
| CC#CCOc1ccc(S(=O)(=O)C2(C(=O)NO)CCN(Cc3ccccc3)CC2)cc1 [Example 4, 1-Benzyl-4-(4-but-2-ynyloxy-benzenesulfonyl)-piperdine-4-carboxylic acid hydroxyamide] | 7.33 | 7.05 | 25% |
| CC#CCOc1ccc(S(=O)(=O)C2(C(=O)NO)CCN(Cc3ccc(C#N)cc3)CC2)cc1 [Example 8, 4-(4-But-2-ynyloxy-benzenesulfonyl)-1-(4-cyano-benzyl)-piperidine-4-carboxylic acid hydroxyamide] | 7.14 | 6.71 | 21% |
| CC#CCOc1ccc(SCC2(C(=O)NO)CCNCC2)cc1 [Example 31, 4-({[4-(But-2-ynyloxy)phenyl]thio}methyl)-N-hydroxypiperidine-4-carboxamide] | < 5.00 | 6.50 | 8% |
| CC#CCOc1ccc(S(=O)(=O)C2(C(=O)NO)CCN(C(CC)CC)CC2)cc1 [Example 27, 4-{[4-(2-Butynyloxy)phenyl]sulfonyl}-1-(3-pentanyl)-piperidine-4-carboxylic acid hydroxyamide] | 6.37 | 6.77 | 13% |
| CC#CCOc1cccc(S(=O)(=O)C2(C(=O)NO)CCN(Cc3ccccc3)CC2)c1 [Example 21, 1-benzyl-4-{[3-(2-butynyloxy)phenyl]sulfonyl}-N-hydroxy-4-piperdine carboxamide] | 6.07 | 6.29 | 6% |

Now from value to compound, other results behind:

| pIC50 (MMP-13) | pIC50 [1] | SMILES | inhibition at 3 µM (THP-1 cells) |
| --- | --- | --- | --- |
| 6.87 | 7.33 | CC#CCOc1ccc(S(=O)(=O)C2(C(=O)NO)CCN(C(C)=O)CC2)cc1 [Example 64, 1-Acetyl-4-(4-but-2-ynyloxybenzenesulfonyl)piperidine-4-carboxylic acid hydroxamide] | 30% |
| 7.09 | 6.97 | CC#CCOc1ccc(S(=O)(=O)C2(C(=O)NO)CCN(C(=O)c3ccc(OC)cc3)CC2)cc1 [Example 66, 1-(4-Methoxybenzoyl)-4-(4-but-2-ynyloxybenzenesulfonyl)piperidine-4-carboxylic acid hydroxamide] | 73% |
| 6.55 | 6.87 | CC#CCOc1ccc(S(=O)(=O)C2(C(=O)NO)CCN(C(=O)OC(C)(C)C)CC2)cc1 [Example 75, Tert-butyl 4-{[4-(2-butynyloxy)phenyl]sulfonyl}-4-[(hydroxyamino)carbonyl-]-1-piperidinecarboxalate] | -4% |
| 6.37 | 7.60 | CC#CCOc1ccc(S(=O)(=O)CC2(C(=O)NO)CCN(CC#CCO)CC2)cc1 [Example 45] | 48% |
| 5.62 | 7.25 | CC#CCOc1ccc(S(=O)(=O)CC2(C(=O)NO)CCN(C(=N)N)CC2)cc1 [Example 44] | 49% |
| 6.60 | 7.43 | CC#CCOc1ccc(S(=O)(=O)CC2(C(=O)NO)CCN(Cc3ccccc3)CC2)cc1 [Example 41] | 60% |
| 6.46 | 7.14 | CC#CCOc1ccc(S(=O)(=O)C2(C(=O)NO)CCN(C(=O)N3CCCC3)CC2)cc1 [Example 67, 4-(4-But-2-ynyloxybenzenesulfonyl)-N-hydroxy-1-(pyrrolidine-1-carbonyl)-4-piperidinecarboxamide] | 18% |
| 5.40 | 6.70 | CC#CCOc1ccc(S(=O)(=O)C2(C(=O)NO)CCNCC2)cc1 [Example 76, 4-{[4-(2-butynyloxy)phenyl]sulfonyl}-N-hydroxy-4-piperidinecarboxamide hydrochloride] | 26% |
| 6.98 | 7.14 | CC#CCOc1ccc(S(=O)(=O)C2(C(=O)NO)CCN(C(=O)c3ccccc3)CC2)cc1 [Example 65, 1-Benzoyl-4-(4-but-2-ynyloxybenzenesulfonyl)piperidine-4-carboxylic acid hydroxamide] | 3% |
| 6.74 | 6.95 | CC#CCOc1ccc(S(=O)(=O)C2(C(=O)NO)CCN(C(=O)c3cccs3)CC2)cc1 [Example 71, 4-(4-but-2-ynyloxybenzenesulfonyl)-N-hydroxy-1-(2-thienylcarbonyl)-4-piperidinecarboxamide] | 14% |
